Reference: the supplement of paper PMC10307832

Assays:
Experiment in all cases: relative viability (nuclei count vs DMSO), 5 days (fraction); higher = more cells survive
NCI-H2009 = test system: NCI-H2009
Procedure, shortened: (§1)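 A single step with final 0.05% Triton X-100, 1% formaldehyde and 1 ug/ml Hoechst fixed the cells and stained nuclei 5 days after treatment. Lung cancer cell lines in 1536-well plates had been treated by pin tool the day after seeding with one drug alone or a fixed anchor-drug dose plus five library-drug doses (not always all listed) in √10 steps, and nuclei were counted on 4× images. Relative viability is the ratio of nuclei in treated wells to nuclei in vehicle wells, taken as the median of duplicate plates.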

NCI-H1734 = test system: NCI-H1734
Procedure, shortened: as §1

UMC-11 = test system: UMC-11
Procedure, shortened: as §1

LC-2-ad = test system: LC-2-ad
Procedure, shortened: as §1

HCC-366 = test system: HCC-366
Procedure, shortened: as §1

NCI-H23 = test system: NCI-H23
Procedure, shortened: as §1

EMC-BAC-2 = test system: EMC-BAC-2
Procedure, shortened: as §1

HCC-15 = test system: HCC-15
Procedure, shortened: as §1

HARA = test system: HARA
Procedure, shortened: as §1

HCC-78 = test system: HCC-78
Procedure, shortened: as §1

COR-L23 = test system: COR-L23
Procedure, shortened: as §1

NCI-H1793 = test system: NCI-H1793
Procedure, shortened: as §1

SK-LU-1 = test system: SK-LU-1
Procedure, shortened: as §1

NCI-H2228 = test system: NCI-H2228
Procedure, shortened: as §1

NCI-H1944 = test system: NCI-H1944
Procedure, shortened: as §1

ChaGo-K-1 = test system: ChaGo-K-1
Procedure, shortened: as §1

NCI-H2126 = test system: NCI-H2126
Procedure, shortened: as §1

A-427 = test system: A-427
Procedure, shortened: as §1

NCI-H2023 = test system: NCI-H2023
Procedure, shortened: as §1

NCI-H2405 = test system: NCI-H2405
Procedure, shortened: as §1

NCI-H838 = test system: NCI-H838
Procedure, shortened: as §1

NCI-H1993 = test system: NCI-H1993
Procedure, shortened: as §1

ABC-1 = test system: ABC-1
Procedure, shortened: as §1

With O=C(O)c1ccc(-c2c[nH]c3ncc(-c4ccccc4)cc23)cc1C1CCCC1 + N=C(N)NC(=N)NCCc1ccccc1 [Phenformin] (partner 250 µM) the relative viability (NCI-H2009; first compound 0.04 µM) was 0.519, the relative viability (NCI-H2009; first compound 0.1265 µM) was 0.533 and the relative viability (NCI-H2009; first compound 0.4 µM) was 0.512. It also gave a relative viability (NCI-H2009; first compound 1.265 µM) of 0.393, a relative viability (NCI-H1734; first compound 0.04 µM) of 0.419 and a relative viability (NCI-H1734; first compound 0.1265 µM) of 0.452. For the same molecule, the relative viability (NCI-H1734; first compound 0.4 µM) was 0.371, the relative viability (NCI-H1734; first compound 1.265 µM) was 0.358 and the relative viability (UMC-11; first compound 0.04 µM) was 0.331. For the same molecule, the relative viability (UMC-11; first compound 0.1265 µM) was 0.324, the relative viability (UMC-11; first compound 0.4 µM) was 0.306 and the relative viability (UMC-11; first compound 1.265 µM) was 0.265. For the same molecule, the relative viability (LC-2-ad; first compound 0.04 µM) was 0.584, the relative viability (LC-2-ad; first compound 0.1265 µM) was 0.634 and the relative viability (LC-2-ad; first compound 0.4 µM) was 0.536. It also gave a relative viability (LC-2-ad; first compound 1.265 µM) of 0.494, a relative viability (HCC-366; first compound 0.04 µM) of 0.686 and a relative viability (HCC-366; first compound 0.1265 µM) of 0.631. The relative viability (HCC-366; first compound 0.4 µM) was 0.607, the relative viability (HCC-366; first compound 1.265 µM) was 0.611 and the relative viability (NCI-H23; first compound 0.04 µM) was 0.776. It also gave a relative viability (NCI-H23; first compound 0.1265 µM) of 0.902, a relative viability (NCI-H23; first compound 0.4 µM) of 0.814 and a relative viability (NCI-H23; first compound 1.265 µM) of 0.613. For the same molecule, the relative viability (EMC-BAC-2; first compound 0.04 µM) was 0.513, the relative viability (EMC-BAC-2; first compound 0.1265 µM) was 0.554 and the relative viability (EMC-BAC-2; first compound 0.4 µM) was 0.527. The relative viability (EMC-BAC-2; first compound 1.265 µM) was 0.424, the relative viability (HCC-15; first compound 0.04 µM) was 0.514 and the relative viability (HCC-15; first compound 0.1265 µM) was 0.617. It also gave a relative viability (HCC-15; first compound 0.4 µM) of 0.433, a relative viability (HCC-15; first compound 1.265 µM) of 0.234 and a relative viability (HARA; first compound 0.04 µM) of 0.469. The relative viability (HARA; first compound 0.1265 µM) was 0.479, the relative viability (HARA; first compound 0.4 µM) was 0.459 and the relative viability (HARA; first compound 1.265 µM) was 0.372. For the same molecule, the relative viability (HCC-78; first compound 0.1265 µM) was 0.907, the relative viability (HCC-78; first compound 0.4 µM) was 0.828 and the relative viability (HCC-78; first compound 1.265 µM) was 0.683. The relative viability (COR-L23; first compound 0.04 µM) was 0.424, the relative viability (COR-L23; first compound 0.1265 µM) was 0.507 and the relative viability (COR-L23; first compound 0.4 µM) was 0.437. The relative viability (COR-L23; first compound 1.265 µM) was 0.268, the relative viability (NCI-H1793; first compound 0.04 µM) was 0.404 and the relative viability (NCI-H1793; first compound 0.1265 µM) was 0.494. It also gave a relative viability (NCI-H1793; first compound 0.4 µM) of 0.374, a relative viability (NCI-H1793; first compound 1.265 µM) of 0.365 and a relative viability (SK-LU-1; first compound 0.04 µM) of 0.537. The relative viability (SK-LU-1; first compound 0.1265 µM) was 0.585, the relative viability (SK-LU-1; first compound 0.4 µM) was 0.459 and the relative viability (SK-LU-1; first compound 1.265 µM) was 0.363. The relative viability (NCI-H2228; first compound 0.04 µM) was 0.37, the relative viability (NCI-H2228; first compound 0.1265 µM) was 0.344 and the relative viability (NCI-H2228; first compound 0.4 µM) was 0.349. For the same molecule, the relative viability (NCI-H2228; first compound 1.265 µM) was 0.245, the relative viability (NCI-H1944; first compound 0.04 µM) was 0.191 and the relative viability (NCI-H1944; first compound 0.1265 µM) was 0.214. For the same molecule, the relative viability (NCI-H1944; first compound 0.4 µM) was 0.194, the relative viability (NCI-H1944; first compound 1.265 µM) was 0.172 and the relative viability (ChaGo-K-1; first compound 0.04 µM) was 0.477. It also gave a relative viability (ChaGo-K-1; first compound 0.1265 µM) of 0.541, a relative viability (ChaGo-K-1; first compound 0.4 µM) of 0.452 and a relative viability (ChaGo-K-1; first compound 1.265 µM) of 0.507. It also gave a relative viability (NCI-H2126; first compound 0.04 µM) of 0.571, a relative viability (NCI-H2126; first compound 0.1265 µM) of 0.581 and a relative viability (NCI-H2126; first compound 0.4 µM) of 0.505. The relative viability (NCI-H2126; first compound 1.265 µM) was 0.441, the relative viability (A-427; first compound 0.04 µM) was 0.317 and the relative viability (A-427; first compound 0.1265 µM) was 0.446. It also gave a relative viability (A-427; first compound 0.4 µM) of 0.304, a relative viability (A-427; first compound 1.265 µM) of 0.264 and a relative viability (NCI-H2023; first compound 0.04 µM) of 0.412. For the same molecule, the relative viability (NCI-H2023; first compound 0.1265 µM) was 0.491, the relative viability (NCI-H2023; first compound 0.4 µM) was 0.44 and the relative viability (NCI-H2023; first compound 1.265 µM) was 0.278. It also gave a relative viability (NCI-H2405; first compound 0.04 µM) of 0.445, a relative viability (NCI-H2405; first compound 0.1265 µM) of 0.442 and a relative viability (NCI-H2405; first compound 0.4 µM) of 0.382. The relative viability (NCI-H2405; first compound 1.265 µM) was 0.383, the relative viability (NCI-H838; first compound 0.04 µM) was 0.542 and the relative viability (NCI-H838; first compound 0.1265 µM) was 0.655. It also gave a relative viability (NCI-H838; first compound 0.4 µM) of 0.596, a relative viability (NCI-H838; first compound 1.265 µM) of 0.511 and a relative viability (NCI-H1993; first compound 0.04 µM) of 0.574. It also gave a relative viability (NCI-H1993; first compound 0.1265 µM) of 0.475, a relative viability (NCI-H1993; first compound 0.4 µM) of 0.477 and a relative viability (NCI-H1993; first compound 1.265 µM) of 0.513. For the same molecule, the relative viability (ABC-1; first compound 0.04 µM) was 0.272, the relative viability (ABC-1; first compound 0.1265 µM) was 0.232 and the relative viability (ABC-1; first compound 0.4 µM) was 0.229. It also gave a relative viability (ABC-1; first compound 1.265 µM) of 0.181.
